Test results taken from patent US20080194652A1 (priority 2004, published 2008).

Legend:
[1] = system: resistant P. falciparum; conditions: literature; cited from earlier work
[2] = system: CQ-resistant P. falciparum infection; conditions: cited from earlier work
[3] = in vivo; cited from earlier work
[4] = system: cardiac electrophysiology; conditions: cited from earlier work
[5] = system: P. falciparum strain 7G8; assay: 72 hour microplate growth assay, SybrGreen I-based fluorescence readout, drug-resistance reversal; type: cell-based, Plasmodium falciparum; conditions: for resistance reversal activity inferred from comparison of (+/−) with (+): indirect assessment, chloroquine, chloroquine and quinine; for decrease of CQ EC50 (chloroquine resistance reversal): with chloroquine, equimolar comparison of (+) and (+/−) CP
Protocol: (§1) Results were determined by SybrGreen I-based fluorescence assay.
(§2) This indirect assessment was required because only the antihistaminically-active (+) and (+/−) forms are available.

[6] = system: P. falciparum strain W2; assay: as above; type: cell-based, Plasmodium falciparum; conditions: for resistance reversal activity inferred from comparison of (+/−) with (+): indirect assessment, chloroquine, chloroquine and quinine; for decrease of CQ EC50 (chloroquine resistance reversal): with chloroquine, equimolar comparison of (+) and (+/−) CP
Protocol: as §1, §2

[7] = system: Plasmodium falciparum; assay: in vitro drug-resistance reversal, strain not stated; type: cell-based
[8] = system: rodent malaria; conditions: in vivo; cited from earlier work
[9] = listed as (+/−)chlorpheniramine
[10] = with quinine, equimolar comparison

Question: For `COc1ccc(CCN(C)CCCC(C#N)(c2ccc(OC)c(OC)c2)C(C)C)cc1OC` (stereo not shown) [verapamil], which “chloroquine resistance reversal in vitro” value [1] is on record?
Answer: Its value is “partially restored chloroquine sensitivity”.

Question: What does the source list for `CNCCCN1c2ccccc2CCc2ccccc21` [desipramine]?
Answer: chloroquine resistance reversal in vitro [1]: reversed chloroquine resistance; clinical outcome / cure rates ([2]; co-administered with chloroquine, clinical trials): ineffective; chloroquine resistance reversal in primate animal trial [3]: reversed chloroquine resistance

Question: Which “change of cardiac electrophysiology” value [4] does the source give for `CN(C)CCC(c1ccc(Cl)cc1)c1ccccn1` (single isomer, unassigned; (-)) [(−) CP, (−) chlorpheniramine] here?
Answer: Its value is “only at in vitro concentrations far above those needed to restore chloroquine sensitivity”.

Question: And the “resistance reversal activity inferred from comparison of (+/−) with (+)” value (“resistance reversal activity inferred” below) [5]?
Answer: Its value is “active”.

Question: What about the “resistance reversal activity inferred” value ([5]; listed as (−)chlorpheniramine) of the same molecule?
Answer: Its value is “must be active”.

Question: And the “resistance reversal activity inferred” value [6]?
Answer: The value was “active”.

Question: And the “resistance reversal activity inferred” value ([6]; listed as (−)chlorpheniramine)?
Answer: Its value is “must be active”.

Question: What about the chloroquine resistance reversal ([7]; inferred for the (−) isomer) of the same molecule?
Answer: Its chloroquine resistance reversal is “reverses”.

Question: What about the quinine resistance reversal ([7]; inferred for the (−) isomer) of the same molecule?
Answer: Its quinine resistance reversal is “reverses”.

Question: Which “effectiveness in rodent malaria models” value [8] does the source give for `CN(C)CCC(c1ccc(Cl)cc1)c1ccccn1` (racemic) [(+/−) CP, chlorpheniramine] here?
Answer: Its value is “demonstrated effectiveness”.

Question: And the “decrease of CQ EC50 (chloroquine resistance reversal)” value (from here on “decrease of CQ EC50”) [5]?
Answer: The value was “at least equivalent to (+) CP”.

Question: What about the “decrease of CQ EC50” value [5, 9] of the same molecule?
Answer: Its value is “equivalent or slightly superior to the (+) isomer”.

Question: What about the quinine resistance reversal [5, 10] of the same molecule?
Answer: The quinine resistance reversal was “equivalent or slightly superior to the (+) isomer”.

Question: And the “decrease of CQ EC50” value [6]?
Answer: Its value is “at least equivalent to (+) CP”.

Question: And the “decrease of CQ EC50” value [6, 9]?
Answer: Its value is “equivalent or slightly superior to the (+) isomer”.

Question: What about the quinine resistance reversal [6, 10] of the same molecule?
Answer: Its quinine resistance reversal is “equivalent or slightly superior to the (+) isomer”.

Question: And the “chloroquine resistance reversal in vitro” value [1]?
Answer: Its value is “demonstrated effectiveness”.

Question: And the “drowsiness in clinical trials” value ([2]; in vivo)?
Answer: Its value is “drowsiness was consistently found”.

Question: With `CN(C)CCC(c1ccc(Br)cc1)c1ccccn1` (stereo not shown) [brompheniramine] as the molecule, how does the chloroquine resistance reversal ([7]; with chloroquine, in vitro) read?
Answer: The chloroquine resistance reversal was “chloroquine resistance reversal agents”.

Question: Which results are given for `CN(C)CC[C@@H](c1ccc(Cl)cc1)c1ccccn1` [(+) CP, (+) chlorpheniramine]?
Answer: decrease of CQ EC50 (chloroquine resistance reversal) [5]: active; decrease of CQ EC50 (chloroquine resistance reversal) [6]: active

Question: Which chloroquine resistance reversal ([7]; with chloroquine, in vitro) does the source give for `CN(C)CCC(c1ccc(F)cc1)c1ccccn1` (stereo not shown) [flupheniramine] here?
Answer: Its chloroquine resistance reversal is “chloroquine resistance reversal agents”.

Question: For `CN(C)CCC(c1ccccc1)c1ccccn1` (stereo not shown) [pheniramine], which chloroquine resistance reversal ([7]; with chloroquine, in vitro) is on record?
Answer: Its chloroquine resistance reversal is “chloroquine resistance reversal agents”.
